Test results: US20140199690A1, “MATERIALS AND METHODS FOR HIGH-THROUGHPUT DETERMINATION OF GENOME-WIDE DNA METHYLATION PROFILE” (THE HONG KONG UNIVERSITY OF SCIENCE AND TECHNOLOGY, priority 2013, published 2014)

How the values were obtained:
HEK293T cells = assay: FPDM measurement of cellular DNA methylation after 5-aza-dC treatment; type: cell-based, human; settings: 3 days, 100 ng DNA
[1] = test system: murine embryonic fibroblasts cells; settings: 5 μM aza-dC; cited from earlier work

Nc1ncn([C@H]2C[C@H](O)[C@@H](CO)O2)c(=O)n1 [5-aza-dC, 5-aza-2′-deoxycytidine]
cellular DNA methylation measured by FPDM, relative to untreated control (HEK293T cells; 5 μM 5-aza-dC): 67.73±0.53 % of control | cellular DNA methylation measured by FPDM, relative to untreated control (HEK293T cells; 10 μM 5-aza-dC): 45.16±8.84 % of control | hypomethylation relative to the untreated control [1]: about 42%
